Key:
lambsquarters = assay: Test D postemergence; format: in vivo, Chenopodium album; conditions: scale 0 to 100
Description: (§1) Seeds of plant species selected from bluegrass (annual bluegrass, Poa annua), blackgrass (Alopecurus myosuroides), canarygrass (Phalaris minor), chickweed (common chickweed, Stellaria media), galium (catchweed bedstraw, Galium aparine), bromegrass, down (downy bromegrass, Bromus tectorum), Russian thistle (Salsola kali), field poppy (Papaver rhoeas), field violet (Viola arvensis), foxtail, green (green foxtail, Setaria viridis), deadnettle (henbit deadnettle, Lamium amplexicaule), ryegrass, Ital. (Italian ryegrass, Lolium multiflorum), kochia (Kochia scoparia), lambsquarters (Chenopodium album), oilseed rape (Brassica napus), pigweed (Amaranthus retroflexus), chamomile (scentless chamomile, Matricaria inodora), speedwell (bird's-eye speedwell, Veronica persica), barley, spring (spring barley, Hordeum vulgare), wheat, spring (spring wheat, Triticum aestivum), buckwheat, wild (wild buckwheat, Polygonum convolvulus), wild mustard (Sinapis arvensis), oat, wild (wild oat, Avena fatua), radish, wild (wild radish, Raphanus raphanistrum), […]), barley, winter (winter barley, Hordeum vulgare), and wheat, winter (winter wheat, Triticum aestivum) were planted into a silt loam soil and treated preemergence with test chemicals formulated in a non-phytotoxic solvent mixture which included a surfactant. At the same time, these species were planted in pots containing Sunshine Redi-Earth® planting medium comprising spaghnum peat moss, vermiculite, starter nutrients and dolomitic limestone and treated with postemergence applications of the test chemicals formulated in the same manner. Plants ranged in height from 2 to 18 cm (1- to 4-leaf stage). Treated plants and controls were maintained in a controlled growth environment for 14 to 21 d after which time all species were compared to controls and visually evaluated. […] A dash (-) response means no test result.

johnsongrass = assay: Test C preemergence; format: in vivo, Sorghum halepense; conditions: for Plant response rating (scale of 0 to 100 where 0 is no effect and 100 is complete control): Johnsongrass, preemergence; for Johnsongrass plant response rating (0 to 100): Preemergence, visual rating after 13 to 15 d
Description: (§2) Seeds of plant species selected from blackgrass (Alopecurus myosuroides), ryegrass, Italian (Italian ryegrass, Lolium multiflorum), wheat (winter wheat, Triticum aestivum), galium (catchweed bedstraw, Galium aparine), corn (Zea mays), crabgrass, large (large crabgrass, Digitaria sanguinalis), foxtail, giant, (giant foxtail, Setaria faberii), johnsongrass (Sorghum halepense), lambsquarters (Chenopodium album), morningglory (Ipomoea coccinea), nutsedge, yellow (yellow nutsedge, Cyperus esculentus), pigweed (Amaranthus retroflexus), ragweed (common ragweed, Ambrosia elatior), soybean (Glycine max), barnyardgrass (Echinochloa crus-galli), oilseed rape (Brassica napus), waterhemp (common waterhemp, Amaranthus rudis), and velvetleaf (Abutilon theophrasti) were planted into a blend of loam soil and sand and treated preemergence with test chemicals formulated in a non-phytotoxic solvent mixture which included a surfactant. At the same time, plants selected from these crop and weed species and also chickweed (common chickweed, Stellaria media), oat, wild (wild oat, Avena fatua), and kochia (Kochia scoparia), were planted in pots containing Sunshine Redi-Earth® planting medium comprising spaghnum peat moss, vermiculite, starter nutrients and dolomitic limestone and treated with postemergence applications of test chemicals formulated in the same manner. Plants ranged in height from 2 to 18 cm (1- to 4-leaf stage) for postemergence treatments. […] A dash (-) response means no test result.

corn = assay: Test A preemergence; format: in vivo, Zea mays; conditions: Zea mays, pre-emergence, 240 h, 0 to 100 scale (0 no effect, 100 complete control); for Corn plant response rating (crop injury, 0 = no effect, 100 = complete kill) at 125 g/ha: 125 g ai/ha; for Corn plant response rating (crop injury, 0 = no effect, 100 = complete kill) at 500 g/ha: 500 g ai/ha, approx. 10 d
Procedure, shortened: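 Plant seeds in loam soil blended with sand, then apply test chemical preemergence as a directed soil spray; in parallel, spray potted seedlings (one- to two-leaf, 2 to 10 cm) postemergence. Both treatments use a non-phytotoxic solvent mixture with surfactant.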

wheat, winter = assay: Test D postemergence; format: in vivo, Triticum aestivum; conditions: scale 0 to 100
Description: as §1

wheat, spring = assay: Test D postemergence; format: in vivo, Triticum aestivum; conditions: scale 0 to 100
Description: as §1

soybean = assay: Test C preemergence; format: in vivo, Glycine max; conditions: for Soybean plant response rating (0 to 100): Preemergence, visual rating after 13 to 15 d; for Plant response rating (scale of 0 to 100 where 0 is no effect and 100 is complete control): Soybean, preemergence, 250 g ai/ha
Description: as §2

ryegrass, Ital. = assay: Test D preemergence; format: in vivo, Lolium multiflorum; conditions: scale 0 to 100
Description: as §1

chamomile = assay: Test D postemergence; format: in vivo, Matricaria inodora; conditions: scale 0 to 100
Description: as §1

Compound	Plant response rating: Lambsquarters (lambsquarters; 31 g ai/ha)	Plant response rating: Lambsquarters (lambsquarters; 62 g ai/ha)	Plant response rating: Lambsquarters (lambsquarters; 125 g ai/ha)	Plant response rating: Lambsquarters (lambsquarters; 250 g ai/ha)	Plant response rating (scale of 0 to 100 where 0 is no effect and 100 is complete control) (johnsongrass; 125 g ai/ha)	Plant response rating (scale of 0 to 100 where 0 is no effect and 100 is complete control) (johnsongrass; 250 g ai/ha)	Johnsongrass plant response rating (0 to 100) (johnsongrass; 31 g ai/ha)	Johnsongrass plant response rating (0 to 100) (johnsongrass; 62 g ai/ha)	Corn plant response rating (crop injury, 0 = no effect, 100 = complete kill) at 125 g/ha (corn) [%]	Corn plant response rating (crop injury, 0 = no effect, 100 = complete kill) at 500 g/ha (corn) [%]	Plant response rating: Wheat, Winter (wheat, winter; 31 g ai/ha)	Plant response rating: Wheat, Winter (wheat, winter; 62 g ai/ha)	Plant response rating: Wheat, Winter (wheat, winter; 125 g ai/ha)	Plant response rating: Wheat, Winter (wheat, winter; 250 g ai/ha)	Plant response rating: Wheat, Spring (wheat, spring; 31 g ai/ha)	Plant response rating: Wheat, Spring (wheat, spring; 62 g ai/ha)	Plant response rating: Wheat, Spring (wheat, spring; 125 g ai/ha)	Plant response rating: Wheat, Spring (wheat, spring; 250 g ai/ha)	Soybean plant response rating (0 to 100) (soybean; 31 g ai/ha)	Soybean plant response rating (0 to 100) (soybean; 62 g ai/ha)	other results
CCOc1nc(-c2ccc(F)cc2)nn1Cc1ccnc(C(F)(F)F)c1 [Compound 8, 4-[[5-ethoxy-3-(4-fluorophenyl)-1H-1,2,4-triazol-1-yl]methyl]-2-(trifluoromethyl)pyridine]	95	95	95	90	98	100	85	98	90	100	25	35	35	35	25	25	35	35	15	35	Plant response rating (scale of 0 to 100 where 0 is no effect and 100 is complete control) (soybean): 75; Plant response rating: Ryegrass, Ital. (ryegrass, Ital.; 62 g ai/ha): 40; Plant response rating: Ryegrass, Ital. (ryegrass, Ital.; 125 g ai/ha): 95; Plant response rating: Ryegrass, Ital. (ryegrass, Ital.; 250 g ai/ha): 100; Plant response rating: Chamomile (chamomile; 31 g ai/ha): 50; Plant response rating: Chamomile (chamomile; 62 g ai/ha): 50; Plant response rating: Chamomile (chamomile; 125 g ai/ha): 60; Plant response rating: Chamomile (chamomile; 250 g ai/ha): 65
CCc1nc(-c2ccc(C(F)(F)F)cc2)nn1Cc1ccnc(C(F)(F)F)c1 [Compound 1, 4-[[5-ethyl-3-[4-(trifluoromethyl)phenyl]-1H-1,2,4-triazol-1-yl]methyl]-2-(trifluoromethyl)pyridine]	75	80	85	90	55	80	25	35	10	20	15	15	25	35	20	25	35	45	0	5	Plant response rating (scale of 0 to 100 where 0 is no effect and 100 is complete control) (soybean): 20; Plant response rating: Ryegrass, Ital. (ryegrass, Ital.; 62 g ai/ha): 25; Plant response rating: Ryegrass, Ital. (ryegrass, Ital.; 125 g ai/ha): 30; Plant response rating: Ryegrass, Ital. (ryegrass, Ital.; 250 g ai/ha): 35; Plant response rating: Chamomile (chamomile; 31 g ai/ha): 25; Plant response rating: Chamomile (chamomile; 62 g ai/ha): 35; Plant response rating: Chamomile (chamomile; 125 g ai/ha): 55; Plant response rating: Chamomile (chamomile; 250 g ai/ha): 65
